Measurements from ChEMBL document CHEMBL4680162, “Synthesis and pharmacological evaluation of chlorin derivatives for photodynamic therapy of cholangiocarcinoma” (Eur J Med Chem, 2020).
Activity calls are given as the source filed them. No cut-off for these calls is given here.

Legend:
[1] = Drug localization in mitochondria of human QBC939 cells at 4 uM incubated for 4 hrs in dark by mito-tracker green based confocal microscopic method; format: ADME; conditions: qbc939, 4 h
[2] = Phototoxicity against human QBC939 cells assessed as reduction in cell viability irradiated with 2 J/cm2 of 650 nanometer laser light preincubated for 24 hrs in dark and measured after 24 hrs by MTT assay; format: functional, cell-based; conditions: QBC939, light or radiation study
[3] = Drug uptake in nude mouse xenografted with QBC939 cells assessed as drug level in tumor tissue at 1 mg/kg, iv measured after 24 hrs by fluorescence imaging assay; format: ADME, organism-based, Neoplasm; conditions: in vivo
[4] = Induction of apoptosis in human QBC939 cells assessed as viable cells at 2 uM in presence of 2J/cm2 light irradiation measured after 2 hrs by annexin V-FITC and propidium iodide staining based flow cytometric analysis (reference value: 99.6 %); format: functional; conditions: QBC939, light or radiation study, read-out: Activity
[5] = Absorption property of the compound in DMF assessed as Q band maximum absorption wavelength by UV-visible spectrophotometric method; format: physicochemical
[6] = system: QBC939; assay: Photodynamic antitumour activity against human QBC939 cells xenografted in BABL/c nude mouse assessed as increase in apoptotic cells at 1 mg/kg, iv measured after 1 day of light irradiation by TUNEL assay; format: functional, organism-based
[7] = Emission property of compound in DMF assessed as Q band emission wavelength by […]; format: physicochemical
[8] = Drug localization in nucleus of human QBC939 cells at 4 uM incubated for 4 hrs in dark by Hoechst 33342 based confocal microscopic method; format: ADME, subcellular; conditions: qbc939, 4 h
[9] = Drug uptake in mouse assessed as drug level in plasma at 1 mg/kg, iv measured upto 24 hrs by fluorometric method; format: ADME, organism-based; conditions: in vivo
[10] = Induction of apoptosis in human QBC939 cells assessed as necrotic cells at 2 uM in presence of 2J/cm2 light irradiation measured after 24 hrs by annexin V-FITC and propidium iodide staining based flow cytometric analysis (reference value: 0.02 %); format: functional
[11] = Emission property of compound in DMSO assessed as Q band emission wavelength by […]; format: physicochemical
[12] = Induction of apoptosis in human QBC939 cells assessed as necrotic cells at 2 uM in presence of 2J/cm2 light irradiation measured after 2 hrs by annexin V-FITC and propidium iodide staining based flow cytometric analysis (reference value: 0.02 %); format: functional
[13] = Drug localization in lysosome of human QBC939 cells at 4 uM incubated for 4 hrs in dark by lyso-tracker blue based confocal microscopic method; format: ADME, subcellular; conditions: qbc939, 4 h
[14] = Phototoxicity in BALB/c nude mouse xenografted with QBC939 cells assessed as change in liver at 1 mg/kg, iv followed by laser light irradiation at 120 J/cm2 measured after 1 day of light irradiation by H and E staining based histological analysis; format: organism-based; conditions: in vivo, 24 h
[15] = Induction of apoptosis in human QBC939 cells assessed as late apoptotic cells at 2 uM by annexin V-FITC and propidium iodide staining based flow cytometric analysis; format: functional
[16] = Dark toxicity in human QBC939 cells assessed as reduction in cell viability incubated under dark for 24 hrs measured after 24 hrs by MTT assay; format: cell-based; conditions: read-out: TC50
[17] = Phototoxicity in ICR mouse assessed as tail weight at 1 mg/kg, iv followed by 10 mW/cm2 light irradiation for 10 mins at 1 day after drug challenge and measured after 1 day of light irradiation by H and E staining based microscopic analysis (reference value: 115.6 +/- 5.6 mg); format: organism-based; conditions: in vivo, 48 h, time 2 day
[18] = Absorption property of the compound in DMSO assessed as Q band maximum absorption wavelength by UV-visible spectrophotometric method; format: physicochemical

Drug uptake [1]: Active
Drug uptake [3]: Active
Activity [5]: 656 nm
Activity [7]: 656 nm
Drug uptake [8]: Not Active
Drug uptake [9]: Active
Activity [11]: 652 nm
Drug uptake [13]: Active
Activity [18]: 650 nm
Compound: COC(=O)C1(C(=O)O)C2c3nc(c(-c4ccccc4)c4ccc([nH]4)c(-c4ccccc4)c4nc(c(-c5ccccc5)c5ccc([nH]5)c3-c3ccccc3)C=C4)C21 (stereo not drawn)
IC50 [2]: 1360 nM
viability at 2 µM [4]: 51.3%
Activity [6]: Active
Activity [10]: 7.79%
Activity [12]: 10.73%
Activity [14]: Non-Toxic
Activity [15]: 2.06%
CC50 at 48 h [16]: > 8 µM
Activity [17]: 116.5 mg
